# Data published in patent US12616711B2, “Therapeutic dendrimer” (Starpharma Pty Ltd, priority 2019, dated 2026).
# What was measured:
# [1] = tested on: CAPAN-1 tumour xenografts; experiment: CAPAN-1 mouse xenograft, alone or with Abraxane or DEP-DTX (Examples 13a, 13b); type: in vivo
# Protocol: Mice were inoculated and tumours sized as described above. On day nineteen after implantation, mice with similar sized tumours (mean tumour volume 100 mm^3) were randomised into 7 groups of 10 animals. […] Abraxane® was dissolved in saline solution immediately prior to dosing.
# Abraxane®, gemcitabine and dendrimers were administered at days 1, 10, and 17 via tail vein i.v. injection, at 0.1 ml/10 g body weight.
# In an extension of Example 13a, two additional groups of mice were prepared and dosed to assess the anti-tumour efficacy properties of a taxane-dendrimer combined with a nucleoside analogue-dendrimer (e.g. 6). Mice were inoculated and tumours sized as described above.
# Dendrimers were administered weekly via tail vein i.v. injection, at 0.1 ml/10 g body weight for 3 weeks.
# All statistical analyses were performed using GraphPad Prism 8.1.
# A549 tumour xenografts = experiment: A549 lung adenocarcinoma mouse xenograft (Example 15); type: in vivo; settings: 3 at 6 mg/kg weekly, Gemcitabine 120 mg/kg twice weekly, 3 weeks i.v.
# Protocol: A A549 (human adenocarcinomic human alveolar basal epithelial) cell line was used to assess the anti-tumour efficacy properties of 3. NSG mice were inoculated and tumours sized as described above. On day 30 after implantation, mice with similar sized tumours (mean tumour volume 100 mm^3) were randomised into four groups of 10 animals for each tumour type. Gemcitabine and 3 were prepared as described above.
# Gemcitabine was administered twice weekly and dendrimer was administered weekly for 3 weeks via tail vein i.v. injection, at 0.1 ml/10 g body weight.
# A549 cells = experiment: alamarBlue viability assay, GI50; type: cell-based, human; settings: 72 h, given in μM Gemcitabine
# Protocol: (§1) A study was carried out to determine the ability of example dendrimers to inhibit growth of cancer cell lines using an alamarBlue viability assay (Thermo Fisher, DAL1025).
# (§2) The cytotoxicity of compounds toward MDA-MB-231, A549, H460, BxPC3 and CAPAN-1 cells were evaluated for viability. Cells were seeded at a density of 1.2-5×10^3 cells, dependent on cell growth rate, in 96 well plates and incubated overnight. Cells were then treated with serial dilutions of test compositions for 72 h (MDA-MB-231, A549 and H460 lines) or 144 h (BxPC3 and CAPAN-1 lines). For cell viability analysis, 10% media volume of alamar Blue was added during the final 6-8 h of incubation. Reduction of alamarBlue in living cells yields a red fluorescent metabolite that can be read on a plate reader (560 nm excitation/610 nm emission.). Cell viability and subsequent GI50 values were was determined from the blank corrected dose-response curves, with 4-parameter nonlinear curve fit, in GraphPad Prism.
# CAPAN-1 cells = experiment: alamarBlue viability assay, GI50; type: cell-based, human; settings: 144 h, given in μM Gemcitabine
# Protocol: as §1, §2
# Plasma release study = type: in vitro ADME; settings: 37° C.
# Protocol: The plasma was placed in a CO2 incubator at 3% CO2 at 42% relative humidity to reach a pH of 7.4.
# Gemcitabine HCl (28.5 mg) was dissolved in Milli Q water and the resulting stock solution transferred to a 5 mL volumetric flask and diluted to provide working standard solutions.
# The plasma release study was conducted by adding 1 mL of plasma (centrifuged and filtered) to 0.2 mL of dendrimer solution (approximately 2 mg/mL gemcitabine equivalent in miliQ water) for example dendrimers and a comparator. The mixtures were vortexed (30 sec) then incubated at 37° C. 5% CO2. At various timepoints aliquots (0.1 mL) were removed and added to ACN (0.2 mL). The resulting mixtures were vortexed (30 s), centrifuged (10 min, 4° C.), filtered and analysed by HPLC (C8 Xbridge, 3×100 mm, […], 0.4 mL/min., gradient: 5% ACN/H2O) (0-1 min), 5-80% ACN (1-7 min), 80% ACN (7-12 min), 80-5% ACN (12-13 min), 5% ACN (13-15 min), 100 mM ammonium formate buffer, column temperature 50° C., sample tray 4° C., 260 nm.
# [2] = tested on: OVCAR-3 (human Ovarian Carcinoma cell line) mouse xenograft; experiment: OVCAR-3 mouse xenograft, alone or with Carboplatin (Example 16); type: in vivo; settings: 3 at 4 mg/kg and 6 mg/kg weekly; Carboplatin 40 mg/kg weekly in combination; 3 weeks i.v.
# Protocol: An OVCAR-3 (human Ovarian Carcinoma cell line) mouse xenograft cancer model was used to assess the anti-tumour efficacy properties of 3 alone or in combination with Carboplatin, compared to Gemcitabine, alone or in combination with Carboplatin. NSG Mice were inoculated and tumours sized as described above. On day twenty nine after implantation, mice with similar sized tumours (mean tumour volume 100 mm^3) were randomised into 10 groups of 10 animals. Gemcitabine and 3 were prepared as described above. DBLCarboplatin (Hospira) was dissolved in saline solution and further diluted in 5% glucose immediately prior to dosing.
# Gemcitabine was administered twice weekly and dendrimers and carboplatin were administered weekly for 3 weeks via tail vein i.v. injection, at 0.1 ml/10 g body weight.
# [3] = tested on: CAPAN-1 tumour xenografts; experiment: CAPAN-1 mouse xenograft, two conjugates (Example 14); type: in vivo; settings: 3 at 6 mg/kg weekly, 6 at 5 mg/kg weekly, Gemcitabine 120 mg/kg twice weekly, 3 weeks i.v.
# Protocol: A CAPAN-1 (human pancreatic adenocarcinoma cell line) mouse xenograft pancreatic cancer model was used to assess the anti-tumour efficacy properties of 3 and 6. NSG (NOD-SCID Interleukin-2 receptor gamma chain null) mice were inoculated and tumours sized as described above. On day 24 after implantation, mice with similar sized tumours (mean tumour volume 100 mm^3) were randomised into four groups of 10 animals for each tumour type. Gemcitabine, 3 and 6 were prepared as described above.
# Gemcitabine was administered twice weekly and dendrimers were administered weekly for 3 weeks via tail vein i.v. injection, at 0.1 ml/10 g body weight.
# BxPC3 cells = experiment: alamarBlue viability assay, GI50; type: cell-based; settings: BxPC-3; 144 h; given in μM Gemcitabine
# Protocol: as §1, §2
# H460 cells = experiment: alamarBlue viability assay, GI50; type: cell-based; settings: 72 h, given in μM Gemcitabine
# Protocol: as §1, §2
substance,measurement,setting,value
"[BHA Lys][Lys]30[Lys]32 [Compound 3, [BHA Lys][Lys]30[Lys]32 [(α-NH-TDA-Gemcitabine)32 (ε-NHPEG˜2100)32]]",anti-tumour efficacy compared to other groups at day 29,[1]; day 29,significantly more effective than Gemcitabine
same,Tumour Growth inhibition (%) v vehicle at day 29,"[1]; day 29, i.v., Gemcitabine 120, Abraxane 40, 3 at 6.5, 6 at 5 (day 1) then 4, DEP-DTX 24 (10 in combination) mg/kg",103%
same,anti-tumour efficacy compared to other groups over the dosing study (FIG. 6),[1]; out to day 82,more effective than Gemcitabine and also more effective than the combination of gemcitabine and Abraxane®
same,anti-tumour efficacy compared to Gemcitabine (FIG. 8),A549 tumour xenografts,more effective than Gemcitabine
same,GI50,A549 cells,0.05 µM
same,GI50,CAPAN-1 cells,0.008 µM
same,Human Plasma % release,Plasma release study; 0 h,1.81%
same,Human Plasma % release,Plasma release study; 2 h,3.73%
same,Human Plasma % release,Plasma release study; 4 h,6.31%
same,Human Plasma % release,Plasma release study; 6 h,17.74%
same,Human Plasma % release,Plasma release study; 24 h,34.83%
same,Human Plasma % release,Plasma release study; 30 h,37.86%
same,anti-tumour efficacy compared to other groups (FIG. 9),[2],more effective than Gemcitabine
same,anti-tumour efficacy compared to other groups (FIG. 7),[3],significantly more effective than Gemcitabine or 6
same,GI50,BxPC3 cells,0.008 µM
same,GI50,H460 cells,0.077 µM
